Data reported in ChEMBL document CHEMBL1201862, “PubChem BioAssay data set” (2004).
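Assay format: 96-well plates, 48-hour exposure. GI50 is the concentration that inhibits growth by half.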 The source made the active and inactive calls. No stated cut-off is given here; in the data, active = GI50 up to about 1.1 µM and inactive = higher.

Assays:
Experiment in all cases: DTP human tumour cell line panel, 48 h
T47D = tested on: T47D
A549 = tested on: A549
NCI/ADR-RES = tested on: NCI/ADR-RES
COLO 205 = tested on: COLO 205
MCF7 = tested on: MCF7
HCC 2998 = tested on: HCC 2998
NCI-H226 = tested on: NCI-H226
UO-31 = tested on: UO-31
SNB-75 = tested on: SNB-75
MDA-N = tested on: MDA-N
786-0 = tested on: 786-0
MOLT-4 = tested on: MOLT-4
Hs-578T = tested on: Hs-578T
SK-OV-3 = tested on: SK-OV-3
SK-MEL-28 = tested on: SK-MEL-28
OVCAR-3 = tested on: OVCAR-3
A498 = tested on: A498
SK-MEL-5 = tested on: SK-MEL-5
KM12 = tested on: KM12
NCI-H23 = tested on: NCI-H23
LOX IMVI = tested on: LOX IMVI
U-251 = tested on: U-251
M14 = tested on: M14
EKVX = tested on: EKVX
HOP-62 = tested on: HOP-62
MDA-MB-435 = tested on: MDA-MB-435
HOP-92 = tested on: HOP-92
MDA-MB-231 = tested on: MDA-MB-231
RXF 393 = tested on: RXF 393
HT-29 = tested on: HT-29
TK-10 = tested on: TK-10
IGROV-1 = tested on: IGROV-1
CCRF-CEM = tested on: CCRF-CEM
DU-145 = tested on: DU-145
PC-3 = tested on: PC-3
NCI-H522 = tested on: NCI-H522
UACC-62 = tested on: UACC-62
Malme-3M = tested on: Malme-3M
SF-295 = tested on: SF-295
ACHN = tested on: ACHN
OVCAR-8 = tested on: OVCAR-8
BT-549 = tested on: BT-549
NCI-H460 = tested on: NCI-H460
SF-539 = tested on: SF-539
SW-620 = tested on: SW-620
SN12C = tested on: SN12C
UACC-257 = tested on: UACC-257
HCT-15 = tested on: HCT-15
HCT-116 = tested on: HCT-116
OVCAR-5 = tested on: OVCAR-5
SK-MEL-2 = tested on: SK-MEL-2
SR = tested on: SR
SF-268 = tested on: SF-268
K562 = tested on: K562
SNB-19 = tested on: SNB-19
OVCAR-4 = tested on: OVCAR-4
CAKI-1 = tested on: CAKI-1
RPMI-8226 = tested on: RPMI-8226
HL-60 = tested on: HL-60

Cc1cc(=O)nc(S(=O)(=O)NC(=O)Nc2cccc(Cl)c2)[nH]1
GI50 (T47D): > 88.5 µM (inactive)
GI50 (A549): > 100 µM (inactive)
GI50 (NCI/ADR-RES): > 100 µM (inactive)
GI50 (COLO 205): > 100 µM (inactive)
GI50 (MCF7): > 100 µM (inactive)
GI50 (HCC 2998): > 100 µM (inactive)
GI50 (NCI-H226): > 100 µM (inactive)
GI50 (UO-31): 3.43 µM (inactive)
GI50 (SNB-75): 49.4 µM (inactive)
GI50 (MDA-N): > 100 µM (inactive)
GI50 (786-0): > 100 µM (inactive)
GI50 (MOLT-4): 32.7 µM (inactive)
GI50 (Hs-578T): > 100 µM (inactive)
GI50 (SK-OV-3): > 100 µM (inactive)
GI50 (SK-MEL-28): > 100 µM (inactive)
GI50 (OVCAR-3): 47.1 µM (inactive)
GI50 (A498): > 100 µM (inactive)
GI50 (SK-MEL-5): > 100 µM (inactive)
GI50 (KM12): 14.7 µM (inactive)
GI50 (NCI-H23): > 100 µM (inactive)
GI50 (LOX IMVI): > 100 µM (inactive)
GI50 (U-251): 97.3 µM (inactive)
GI50 (M14): > 100 µM (inactive)
GI50 (EKVX): > 100 µM (inactive)
GI50 (HOP-62): > 100 µM (inactive)
GI50 (MDA-MB-435): > 33.5 µM (inactive)
GI50 (HOP-92): 6.93 µM (inactive)
GI50 (MDA-MB-231): > 68.9 µM (inactive)
GI50 (RXF 393): > 71.4 µM (inactive)
GI50 (HT-29): > 100 µM (inactive)
GI50 (TK-10): > 100 µM (inactive)
GI50 (IGROV-1): > 100 µM (inactive)
GI50 (CCRF-CEM): 64.4 µM (inactive)
GI50 (DU-145): > 100 µM (inactive)
GI50 (PC-3): > 30.5 µM (inactive)
GI50 (NCI-H522): > 100 µM (inactive)
GI50 (UACC-62): > 100 µM (inactive)
GI50 (Malme-3M): > 100 µM (inactive)
GI50 (SF-295): 16.2 µM (inactive)
GI50 (ACHN): > 100 µM (inactive)
GI50 (OVCAR-8): > 100 µM (inactive)
GI50 (BT-549): > 100 µM (inactive)
GI50 (NCI-H460): > 100 µM (inactive)
GI50 (SF-539): > 100 µM (inactive)
GI50 (SW-620): > 100 µM (inactive)
GI50 (SN12C): > 100 µM (inactive)
GI50 (UACC-257): > 100 µM (inactive)
GI50 (HCT-15): > 100 µM
GI50 (HCT-116): > 100 µM (inactive)
GI50 (OVCAR-5): > 100 µM (inactive)
GI50 (SK-MEL-2): > 100 µM (inactive)
GI50 (SR): > 100 µM (inactive)
GI50 (SF-268): > 100 µM (inactive)
GI50 (K562): > 100 µM (inactive)
GI50 (SNB-19): > 100 µM (inactive)

COc1cc(S(=O)(=O)Nc2nc(-c3ccc(N4C(=O)/C(=C/c5ccccc5)N=C4c4ccccc4)cc3)cs2)ccc1Cl
GI50 (T47D): 42.2 µM (inactive)
GI50 (A549): > 100 µM (inactive)
GI50 (NCI/ADR-RES): > 100 µM (inactive)
GI50 (COLO 205): 40 µM (inactive)
GI50 (MCF7): 35.6 µM (inactive)
GI50 (NCI-H226): 62.5 µM (inactive)
GI50 (UO-31): > 100 µM (inactive)
GI50 (SNB-75): 39.6 µM (inactive)
GI50 (MDA-N): 37.3 µM (inactive)
GI50 (786-0): 63.5 µM (inactive)
GI50 (MOLT-4): 28.2 µM (inactive)
GI50 (Hs-578T): 21 µM (inactive)
GI50 (SK-OV-3): > 100 µM (inactive)
GI50 (SK-MEL-28): 54.7 µM (inactive)
GI50 (OVCAR-3): 11.9 µM (inactive)
GI50 (OVCAR-4): 31.3 µM (inactive)
GI50 (A498): 31.3 µM (inactive)
GI50 (SK-MEL-5): 26.9 µM (inactive)
GI50 (KM12): 50.6 µM (inactive)
GI50 (NCI-H23): 25.2 µM (inactive)
GI50 (LOX IMVI): 34.5 µM (inactive)
GI50 (U-251): 36 µM (inactive)
GI50 (M14): 56.4 µM (inactive)
GI50 (HOP-62): 29 µM (inactive)
GI50 (MDA-MB-435): 46.9 µM (inactive)
GI50 (HOP-92): 34.4 µM (inactive)
GI50 (MDA-MB-231): 21.3 µM (inactive)
GI50 (RXF 393): 32.1 µM (inactive)
GI50 (HT-29): 78.3 µM (inactive)
GI50 (TK-10): > 100 µM (inactive)
GI50 (IGROV-1): 44.2 µM (inactive)
GI50 (CCRF-CEM): 34.6 µM (inactive)
GI50 (DU-145): > 100 µM (inactive)
GI50 (PC-3): 36.6 µM (inactive)
GI50 (NCI-H522): 35.3 µM (inactive)
GI50 (UACC-62): 21.2 µM (inactive)
GI50 (Malme-3M): 30.8 µM (inactive)
GI50 (SF-295): > 100 µM (inactive)
GI50 (ACHN): > 100 µM (inactive)
GI50 (OVCAR-8): 44.4 µM (inactive)
GI50 (BT-549): 38.5 µM (inactive)
GI50 (NCI-H460): > 100 µM (inactive)
GI50 (SF-539): 41.1 µM (inactive)
GI50 (SW-620): 55.1 µM (inactive)
GI50 (SN12C): 45 µM (inactive)
GI50 (UACC-257): 55.2 µM (inactive)
GI50 (HCT-15): > 100 µM
GI50 (CAKI-1): > 100 µM (inactive)
GI50 (HCT-116): 36.5 µM (inactive)
GI50 (OVCAR-5): > 100 µM (inactive)
GI50 (SK-MEL-2): 24.6 µM (inactive)
GI50 (SR): 36.1 µM (inactive)
GI50 (SF-268): 25 µM (inactive)
GI50 (K562): 41.6 µM (inactive)
GI50 (SNB-19): 50.6 µM (inactive)

CCc1ccccc1NNc1cc(=O)[nH]c(=O)[nH]1
GI50 (RPMI-8226): 8.2 µM (inactive)
GI50 (T47D): 17.9 µM (inactive)
GI50 (A549): 24.5 µM (inactive)
GI50 (NCI/ADR-RES): 13.3 µM (inactive)
GI50 (COLO 205): 18 µM (inactive)
GI50 (MCF7): 19.4 µM (inactive)
GI50 (HCC 2998): 16.6 µM (inactive)
GI50 (NCI-H226): 18.5 µM (inactive)
GI50 (UO-31): 17.2 µM (inactive)
GI50 (SNB-75): 17.7 µM (inactive)
GI50 (MDA-N): 17.9 µM (inactive)
GI50 (786-0): 16.6 µM (inactive)
GI50 (MOLT-4): 26.7 µM (inactive)
GI50 (Hs-578T): 28.6 µM (inactive)
GI50 (SK-OV-3): 22.6 µM (inactive)
GI50 (SK-MEL-28): 18.1 µM (inactive)
GI50 (OVCAR-3): 17.1 µM (inactive)
GI50 (OVCAR-4): 20.3 µM (inactive)
GI50 (A498): 21.2 µM (inactive)
GI50 (SK-MEL-5): 17.3 µM (inactive)
GI50 (KM12): 17.3 µM (inactive)
GI50 (NCI-H23): 34.8 µM (inactive)
GI50 (LOX IMVI): 14 µM (inactive)
GI50 (U-251): 17.4 µM (inactive)
GI50 (M14): 18.5 µM (inactive)
GI50 (EKVX): 17.5 µM (inactive)
GI50 (HOP-62): 19.3 µM (inactive)
GI50 (MDA-MB-435): 19.1 µM (inactive)
GI50 (HOP-92): 16.6 µM (inactive)
GI50 (MDA-MB-231): 17.5 µM (inactive)
GI50 (RXF 393): 22.2 µM (inactive)
GI50 (HT-29): 20.8 µM (inactive)
GI50 (TK-10): > 10 µM (inactive)
GI50 (IGROV-1): 19.5 µM (inactive)
GI50 (CCRF-CEM): 26.5 µM (inactive)
GI50 (DU-145): 46.2 µM (inactive)
GI50 (PC-3): 16.6 µM (inactive)
GI50 (UACC-62): 19.6 µM (inactive)
GI50 (Malme-3M): > 10 µM (inactive)
GI50 (SF-295): 17.9 µM (inactive)
GI50 (ACHN): 16.9 µM (inactive)
GI50 (OVCAR-8): 23.4 µM (inactive)
GI50 (BT-549): 19.4 µM (inactive)
GI50 (NCI-H460): 22.9 µM (inactive)
GI50 (SF-539): 22.6 µM (inactive)
GI50 (SW-620): 18.6 µM (inactive)
GI50 (SN12C): 18.8 µM (inactive)
GI50 (UACC-257): 18.5 µM (inactive)
GI50 (CAKI-1): 4.09 µM (inactive)
GI50 (HCT-116): 16.7 µM (inactive)
GI50 (HL-60): 26.7 µM (inactive)
GI50 (OVCAR-5): 22 µM (inactive)
GI50 (SK-MEL-2): 16.6 µM (inactive)
GI50 (SR): 30.5 µM (inactive)
GI50 (SF-268): > 10 µM (inactive)
GI50 (K562): 27 µM (inactive)
GI50 (SNB-19): 20.3 µM (inactive)
